Measurements from patent US10045983B2, “Heteroaryl pyridone and aza-pyrodine compounds” (Genentech, Inc., priority 2011, dated 2018).

Assay: CD69 Whole Blood Assay (CD69 Hu Blood FACS)
Type: cell-based, human
Details: Lymphocyte; human whole blood, anti-IgM activated B lymphocytes, FACS; IC70; Table 2 (unit inferred); read-out: CD69 Hu Blood FACS (IC70)
Procedure, shortened: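 Compounds tested for blocking B-cell CD69 induction by flow cytometry in human whole blood, with activation via anti-human IgM goat F(ab′)2 crosslinking of surface IgM.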

SMILES | IC70 [µM]
Cc1ccc(Nc2cc(-c3ccnc(N4CCn5c(cc6c5CC(C)(C)C6)C4=O)c3CO)cn(C)c2=O)nc1 [Example 281, 3-[3-(hydroxymethyl)-4-[1-methyl-5-[(5-methyl-2-pyridyl)amino]-6-oxo-3-pyridyl]-2-pyridyl]-7,7-dimethyl-1,2,6,8-tetrahydrocyclopenta[3,4]pyrrolo[3,5-b]pyrazin-4-one] | 0.718
C[C@H]1CN(C2COC2)CCN1c1ccc(Nc2cc(-c3ccnc(-n4ncc5c6c(sc5c4=O)CC(C)(C)C6)c3CO)cn(C)c2=O)nc1 [Example 282, 3-[3-(hydroxymethyl)-4-[1-methyl-5-[[5-[(2S)-2-methyl-4-(oxetan-3-yl)piperazin-1-yl]-2-pyridyl]amino]-6-oxo-3-pyridyl]-2-pyridyl]-7,7-dimethyl-6,8-dihydrocyclopenta[3,4]thieno[1,3-d]pyridazin-4-one] | 0.0174
Cc1cc(Nc2cc(-c3ccnc(N4CCn5c(cc6c5CC(C)(C)C6)C4=O)c3CO)cn(C)c2=O)no1 [Example 283, 3-[3-(hydroxymethyl)-4-[1-methyl-5-[(5-methylisoxazol-3-yl)amino]-6-oxo-3-pyridyl]-2-pyridyl]-7,7-dimethyl-1,2,6,8-tetrahydrocyclopenta[3,4]pyrrolo[3,5-b]pyrazin-4-one] | 0.143
Cn1cc(-c2ccnc(N3CCc4c(c(F)c5n4CCCC5)C3=O)c2CO)cc(Nc2cc3n(n2)CCN(C2COC2)C3)c1=O [Example 284, 10-fluoro-2-[3-(hydroxymethyl)-4-[1-methyl-5-[[5-(oxetan-3-yl)-6,7-dihydro-4H-pyrazolo[1,5-a]pyrazin-2-yl]amino]-6-oxo-3-pyridyl]-2-pyridyl]-3,4,6,7,8,9-hexahydropyrido[3,4-b]indolizin-1-one] | 0.131
Cn1cc(-c2ccnc(N3CCn4c(cc5c4CC(C)(C)C5)C3=O)c2CO)cc(Nc2cn(C3COC3)cn2)c1=O [Example 285, 3-[3-(hydroxymethyl)-4-[1-methyl-5-[[1-(oxetan-3-yl)imidazol-4-yl]amino]-6-oxo-3-pyridyl]-2-pyridyl]-7,7-dimethyl-1,2,6,8-tetrahydrocyclopenta[3,4]pyrrolo[3,5-b]pyrazin-4-one] | 0.175
Cn1cc(-c2ccnc(N3CCn4c(cc5c4CC(C)(C)C5)C3=O)c2CO)cc(Nc2ccon2)c1=O [Example 286, 3-[3-(hydroxymethyl)-4-[5-(isoxazol-3-ylamino)-1-methyl-6-oxo-3-pyridyl]-2-pyridyl]-7,7-dimethyl-1,2,6,8-tetrahydrocyclopenta[3,4]pyrrolo[3,5-b]pyrazin-4-one] | 0.167
CC1c2cc(Nc3cc(-c4ccnc(N5CCn6c(cc7c6CCCC7)C5=O)c4CO)cn(C)c3=O)nn2CCN1C (centres unmarked) [Example 287, 2-[4-[5-[(4,5-dimethyl-6,7-dihydro-4H-pyrazolo[1,5-a]pyrazin-2-yl)amino]-1-methyl-6-oxo-3-pyridyl]-3-(hydroxymethyl)-2-pyridyl]-3,4,6,7,8,9-hexahydropyrazino[1,2-a]indol-1-one] | 0.127
Cc1cc(Nc2cc(-c3ccnc(-n4ncc5c6c(sc5c4=O)CC(C)(C)C6)c3CO)cn(C)c2=O)no1 [Example 288, 3-[3-(hydroxymethyl)-4-[1-methyl-5-[(5-methylisoxazol-3-yl)amino]-6-oxo-3-pyridyl]-2-pyridyl]-7,7-dimethyl-6,8-dihydrocyclopenta[3,4]thieno[1,3-d]pyridazin-4-one] | 0.229
Cn1cc(-c2ccnc(N3CCn4c(cc5c4CC(C)(C)C5)C3=O)c2CO)cc(Nc2cc[nH]n2)c1=O [Example 289, 3-[3-(hydroxymethyl)-4-[1-methyl-6-oxo-5-(1H-pyrazol-3-ylamino)-3-pyridyl]-2-pyridyl]-7,7-dimethyl-1,2,6,8-tetrahydrocyclopenta[3,4]pyrrolo[3,5-b]pyrazin-4-one] | 0.214
Cn1ccc(Nc2cc(-c3ccnc(N4CCn5c(cc6c5CC(C)(C)C6)C4=O)c3CO)cn(C)c2=O)n1 [Example 290, 3-[3-(hydroxymethyl)-4-[1-methyl-5-[(1-methylpyrazol-3-yl)amino]-6-oxo-3-pyridyl]-2-pyridyl]-7,7-dimethyl-1,2,6,8-tetrahydrocyclopenta[3,4]pyrrolo[3,5-b]pyrazin-4-one] | 0.113
Cc1cc(Nc2cc(-c3ccnc(-n4ncc5c6c(sc5c4=O)CCCC6)c3CO)cn(C)c2=O)no1 [Example 291, 3-[3-(hydroxymethyl)-4-[1-methyl-5-[(5-methylisoxazol-3-yl)amino]-6-oxo-3-pyridyl]-2-pyridyl]-6,7,8,9-tetrahydrobenzothiopheno[2,3-d]pyridazin-4-one] | 0.843
Cc1cc(Nc2cc(-c3ccnc(-n4ncc5c6c(sc5c4=O)CC(C)(C)C6)c3CO)cn(C)c2=O)nn1C [Example 292, 3-[4-[5-[(1,5-dimethylpyrazol-3-yl)amino]-1-methyl-6-oxo-3-pyridyl]-3-(hydroxymethyl)-2-pyridyl]-7,7-dimethyl-6,8-dihydrocyclopenta[3,4]thieno[1,3-d]pyridazin-4-one] | 0.118
Cn1cc(Nc2cc(-c3ccnc(N4CCn5c(cc6c5CC(C)(C)C6)C4=O)c3CO)cn(C)c2=O)nn1 [Example 293, 3-[3-(hydroxymethyl)-4-[1-methyl-5-[(1-methyltriazol-4-yl)amino]-6-oxo-3-pyridyl]-2-pyridyl]-7,7-dimethyl-1,2,6,8-tetrahydrocyclopenta[3,4]pyrrolo[3,5-b]pyrazin-4-one] | 0.0691
Cn1cc(-c2ccnc(N3CCn4c(cc5c4CC(C)(C)C5)C3=O)c2CO)cc(Nc2cc(C(C)(C)C)on2)c1=O [Example 294, 3-[4-[5-[(5-tert-butylisoxazol-3-yl)amino]-1-methyl-6-oxo-3-pyridyl]-3-(hydroxymethyl)-2-pyridyl]-7,7-dimethyl-1,2,6,8-tetrahydrocyclopenta[3,4]pyrrolo[3,5-b]pyrazin-4-one] | 0.276
CCc1cc(Nc2cc(-c3ccnc(N4CCn5c(cc6c5CC(C)(C)C6)C4=O)c3CO)cn(C)c2=O)no1 [Example 295, 3-[4-[5-[(5-ethylisoxazol-3-yl)amino]-1-methyl-6-oxo-3-pyridyl]-3-(hydroxymethyl)-2-pyridyl]-7,7-dimethyl-1,2,6,8-tetrahydrocyclopenta[3,4]pyrrolo[3,5-b]pyrazin-4-one] | 0.134
COCCN1CCn2nc(Nc3cc(-c4ccnc(N5CCn6c(cc7c6CC(C)(C)C7)C5=O)c4CO)cn(C)c3=O)cc2C1 [Example 296, 3-[3-(hydroxymethyl)-4-[5-[[5-(2-methoxyethyl)-6,7-dihydro-4H-pyrazolo[1,5-a]pyrazin-2-yl]amino]-1-methyl-6-oxo-3-pyridyl]-2-pyridyl]-7,7-dimethyl-1,2,6,8-tetrahydrocyclopenta[3,4]pyrrolo[3,5-b]pyrazin-4-one] | 0.0193
CN1CCn2nc(Nc3cc(-c4ccnc(N5CCn6c(cc7c6CC(C)(C)C7)C5=O)c4CO)nn(C)c3=O)cc2C1 [Example 297, 3-[3-(hydroxymethyl)-4-[1-methyl-5-[(5-methyl-6,7-dihydro-4H-pyrazolo[1,5-a]pyrazin-2-yl)amino]-6-oxo-pyridazin-3-yl]-2-pyridyl]-7,7-dimethyl-1,2,6,8-tetrahydrocyclopenta[3,4]pyrrolo[3,5-b]pyrazin-4-one] | 0.14
Cn1cc(-c2ccnc(N3CCn4c(cc5c4CC(C)(C)C5)C3=O)c2CO)cc(Nc2cnc(C#N)cn2)c1=O [Example 298, 5-[[5-[2-(7,7-dimethyl-4-oxo-1,2,6,8-tetrahydrocyclopenta[3,4]pyrrolo[3,5-b]pyrazin-3-yl)-3-(hydroxymethyl)-4-pyridyl]-1-methyl-2-oxo-3-pyridyl]amino]pyrazine-2-carbonitrile] | 0.869
Cn1cc(-c2ccnc(N3CCn4c(cc5c4CC(C)(C)C5)C3=O)c2CO)cc(Nc2cc(-c3ccccc3)on2)c1=O [Example 299, 3-[3-(hydroxymethyl)-4-[1-methyl-6-oxo-5-[(5-phenylisoxazol-3-yl)amino]-3-pyridyl]-2-pyridyl]-7,7-dimethyl-1,2,6,8-tetrahydrocyclopenta[3,4]pyrrolo[3,5-b]pyrazin-4-one] | 2.1
COC[C@@H](C)N1CCn2nc(Nc3cc(-c4ccnc(N5CCn6c(cc7c6CC(C)(C)C7)C5=O)c4CO)cn(C)c3=O)cc2C1 [Example 300, (R)-2-(3′-(hydroxymethyl)-5-((5-(1-methoxypropan-2-yl)-4,5,6,7-tetrahydropyrazolo[1,5-a]pyrazin-2-yl)amino)-1-methyl-6-oxo-1,6-dihydro-[3,4′-bipyridin]-2′-yl)-7,7-dimethyl-2,3,4,6,7,8-hexahydro-1H-cyclopenta[4,5]pyrrolo[1,2-a]pyrazin-1-one] | 0.024
Cn1cc(-c2ccnc(N3CCn4c(cc5c4CC(C)(C)C5)C3=O)c2CO)cc(Nc2ccc(C(F)(F)F)nn2)c1=O [Example 301, 3-[3-(hydroxymethyl)-4-[1-methyl-6-oxo-5-[[6-(trifluoromethyl)pyridazin-3-yl]amino]-3-pyridyl]-2-pyridyl]-7,7-dimethyl-1,2,6,8-tetrahydrocyclopenta[3,4]pyrrolo[3,5-b]pyrazin-4-one] | 1.3
CN(Cc1cc(Nc2cc(-c3ccnc(N4CCn5c(cc6c5CC(C)(C)C6)C4=O)c3CO)cn(C)c2=O)nn1C)C1COC1 [Example 302, 3-[3-(hydroxymethyl)-4-[1-methyl-5-[[1-methyl-5-[[methyl(oxetan-3-yl)amino]methyl]pyrazol-3-yl]amino]-6-oxo-3-pyridyl]-2-pyridyl]-7,7-dimethyl-1,2,6,8-tetrahydrocyclopenta[3,4]pyrrolo[3,5-b]pyrazin-4-one] | 0.0228
COCCN1CCn2nc(Nc3cc(-c4ccnc(-n5ncc6c7c(sc6c5=O)CC(C)(C)C7)c4CO)cn(C)c3=O)cc2C1 [Example 304, 3-[3-(hydroxymethyl)-4-[5-[[5-(2-methoxyethyl)-6,7-dihydro-4H-pyrazolo[1,5-a]pyrazin-2-yl]amino]-1-methyl-6-oxo-3-pyridyl]-2-pyridyl]-7,7-dimethyl-6,8-dihydrocyclopenta[3,4]thieno[1,3-d]pyridazin-4-one] | 0.04
